Converted amounts (≈) assume the structure as drawn.
Tests used:
[1] = test system: methicillin-resistant S. aureus (MRSA); design: method as in PMID 26501484; details: cited from earlier work
MRGPRX2 = target: T1, MRGPRX2 (Homo sapiens, UniProt Q96LB1); experiment: Degranulation (β-hexosaminidase release) in RBL-2H3 cells expressing MRGPRX2; type: cell-based; details: for EC50: RBL-2H3 cells stably expressing MRGPRX2, 30 min; for percentage degranulation (β-hexosaminidase release): 3 µM, 30 min, RBL-2H3 cells stably expressing MRGPRX2
T1 construct: HA (hemagglutinin)
T1 sequence (Q96LB1 1-330): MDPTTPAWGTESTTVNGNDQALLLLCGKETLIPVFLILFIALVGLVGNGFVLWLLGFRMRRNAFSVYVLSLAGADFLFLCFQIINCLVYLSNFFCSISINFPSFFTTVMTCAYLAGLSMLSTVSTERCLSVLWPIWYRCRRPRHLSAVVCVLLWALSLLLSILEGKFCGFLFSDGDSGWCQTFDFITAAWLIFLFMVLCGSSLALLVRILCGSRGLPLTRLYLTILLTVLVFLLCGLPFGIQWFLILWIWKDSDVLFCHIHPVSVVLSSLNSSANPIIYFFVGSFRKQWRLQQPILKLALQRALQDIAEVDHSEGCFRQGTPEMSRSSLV
Procedure: The human mast cell line, LAD2, was maintained in complete StemPro-34 medium supplemented with L-glutamine (2 mM), penicillin (100 IU/mL), streptomycin (100 μg/mL), and 100 ng/mL recombinant human stem cell factor (rhSCF). Hemidepletions were performed weekly with media containing rhSCF (100 ng/mL). Rat basophilic leukemia (RBL-2H3) cells were maintained as monolayer cultures in DMEM supplemented with 10% FBS, L-glutamine (2 mM), penicillin (100 IU/mL), and streptomycin (100 μg/mL). Peritoneal mast cells (PMCs) were obtained from 6–8 weeks old C57BL/6 and Mrgprb2^-/- (C57BL/6 background) mice using i.p. injection of 8 mL MC disassociation medium that was made of HBSS with 3% FCS and 10 mM HEPES. The cells were cultured in Iscove’s Modified Dulbecco’s Medium (IMDM) supplemented with 10% FCS, murine IL-3 (10 ng/mL), and murine SCF (30 ng/mL). After 48 h, the medium and the suspended cells were removed and replaced with fresh medium containing murine IL-3 (10 ng/mL) and murine SCF (30 ng/mL). The floating cells were then used for the experiment within 2–3 weeks. Bone-marrow-derived mast cells (BMMCs) were harvested by flushing bone marrow cells from the femurs of C57BL/6 mice and culturing the cells for 4–8 weeks in IMDM supplemented with 10% FCS, murine IL-3 (10 ng/mL). The cells were then used within 4–8 weeks.
Cells (2 ×10^6) were transfected with plasmids (2 µg/µL) encoding MRGPRX2 or MRGPRX2 missense mutants using the Amaxa kit V using Amaxa Nucleofector device according to the manufacturer’s protocol. For stable transfection, cells were cultured in the presence of G-418 (1 mg/mL) and used within one month of transfection. For transient transfection, cells were used within 16–20 h after transfection. To detect MRGPRX2 expression, cells (1 × 10^6) were incubated with the PE-conjugated anti-MRGPRX2 antibody, washed in FACS buffer, fixed, and analyzed on a BD LSR II flow cytometer.
RBL-2H3 cells (5 × 10^4), LAD2 cells (10 × 10^4), and PMCs (5 × 10^3), BMMCs (5 × 10^4), were seeded into 96-well plates in a total volume of 50 μl HEPES buffer containing 0.1% bovine serum albumin (BSA) and exposed to ligands for 30 min. Cells without treatment were designated as control. In some experiments, cells were treated with Pertussis toxin (PTx). For total β-hexosaminidase release, unstimulated cells were lysed in 50 μl of 0.1% Triton X-100. Aliquots (20 μl) of supernatants or cell lysates were incubated with 20 μl of 1 mM p-nitrophenyl-N-acetyl-β- D-glucosamine for 1 h at 37 °C. The reaction was stopped by adding 250 μl of a 0.1 M Na2CO3/0.1 M NaHCO3 buffer and absorbance was measured at 405 nm.

[2] = test system: Aspergillus flavus (ATCC 204304); experiment: Fungus MIC assay (CLSI M38-A2); type: cell-based; details: RPMI/MOPS pH 7.0, 35 °C, 48 h; for MIC: Aspergillus flavus, ATCC204304
Procedure: (§1) Fungal strains included a clinical isolate of Candida albicans (ATCC GDH2346), Aspergillus fumigatus (ATCC MYA-3626), and Aspergillus flavus (ATCC 204304). Minimum inhibitory concentration (MIC) assays were carried out in 96-well plates using the Clinical and Laboratory Standards Institute (CLSI) method C27-A3 for C. albicans and M38-A2 for Aspergillus species. smHDPMs, each in stock solutions of 10 mM in DMSO, were diluted in 50 µL RPMI/MOPS pH 7.0 in a 96-well plate and 50 µL of diluted yeast were added to each well. […] The plate was then incubated at 35 °C for 48 h. […] All MIC assays were performed in duplicate.

[3] = test system: Aspergillus fumigatus (ATCC MYA-3626); experiment: Fungus MIC assay (CLSI M38-A2); type: cell-based; details: RPMI/MOPS pH 7.0, 35 °C, 48 h; for MIC: Aspergillus fumigatus
Procedure: as §1

[4] = test system: mouse 3T3 fibroblasts (ATCC CRL-1658); experiment: Cytotoxicity, MTS viability assay; type: cell-based; details: for fold less cytotoxic than Compound 2: CC50 in 3T3 and HepG2 cells relative to Compound 2
Procedure: (§2) Cytotoxicity (50% […] concentration, CC50) was determined against mouse 3T3 fibroblasts (ATCC CRL-1658) and human transformed liver HepG2 cells (ATCC HB-8065) using an MTS viability assay according to the manufacturer’s protocol (Promega CellTiter 96 aqueous nonradioactive cell proliferation assay). Briefly, 3T3 cells were seeded at 2 × 10^4 cells/well in Dulbecco’s modified Eagle’s medium (DMEM) supplemented with 10% bovine calf serum and HepG2 cells were seeded at 3 × 10^4 cells/well in MEM supplemented with 10% fetal bovine serum. After 24 h of growth, the culture medium was replaced with medium lacking serum, and eight two-folds dilutions of each of the five compounds were added. […] Following incubation for 1 h at 37 °C, compound solutions were removed and medium containing serum was replenished. Viability was determined by addition of the tetrazolium compound, MTS, and the electron coupling agent, PMS, and then incubation at 37 °C for 2 h (3T3 cells) or 3 h (HepG2 cells) followed by absorbance measurements at 490 nm. The CC50 was calculated using GraphPad Prism software (nonlinear fit).

[5] = Cytotoxicity, MTS viability assay; type: cell-based, mouse; details: mouse, 3T3 fibroblasts (ATCC CRL-1658); 1 h exposure in serum-free medium, MTS
Procedure: as §2

[6] = test system: Candida albicans (ATCC GDH2346); experiment: Fungus MIC assay (CLSI C27-A3); type: cell-based; details: RPMI/MOPS pH 7.0, 35 °C, 48 h; for MIC: Candida albicans
Procedure: as §1

[7] = test system: human transformed liver HepG2 cells (ATCC HB-8065); experiment: Cytotoxicity, MTS viability assay; type: cell-based
Procedure: as §2

[8] = Cytotoxicity, MTS viability assay; type: cell-based, human; details: human, HepG2 cells (ATCC HB-8065); 1 h exposure in serum-free medium, MTS
Procedure: as §2

[9] = test system: Escherichia coli [ATCC 25922]; experiment: Bacterial MIC assay (Hancock modified broth assay); type: cell-based; details: cation-adjusted Mueller–Hinton, 18 h; for MIC: Escherichia coli, ATCC25922
Procedure: (§3) were tested for antibacterial activities against three Gram-negative bacteria (Escherichia coli [ATCC 25922], Pseudomonas aeruginosa [ATCC 10145], and Klebsiella pneumonia [ATCC 13883]) and two Gram-positive bacteria (Staphylococcus aureus [ATCC 27660] and Enterococcus faecalis [ATCC 29212]) using the Hancock modified broth assay. Three milliliters cation-adjusted Mueller-Hinton medium was inoculated with 20 μL of frozen bacterial stock and incubated at 37 °C on a shaker platform (250 rpm) overnight. […] All samples were done in duplicate. One set of control wells included broth-only samples with dilution buffer for testing sterility and providing blank values for the assay readings. Vehicle-control wells containing the bacterial suspension with DMSO (no compound) were also included. Following the overnight incubation (18 h), the cell growth was assessed by observing the presence of “acceptable growth”, defined by CLSI as a ≥2 mm button or definite turbidity. MIC was defined as the lowest concentration where acceptable growth is not observed.

[10] = test system: Staphylococcus aureus [ATCC 27660]; experiment: Bacterial MIC assay (Hancock modified broth assay); type: cell-based; details: cation-adjusted Mueller–Hinton, 18 h; for MIC: Staphylococcus aureus, ATCC27660
Procedure: as §3

[11] = test system: Klebsiella pneumonia [ATCC 13883]; experiment: Bacterial MIC assay (Hancock modified broth assay); type: cell-based; details: Klebsiella pneumoniae, ATCC13883; cation-adjusted Mueller–Hinton, 18 h
Procedure: as §3

[12] = test system: Enterococcus faecalis [ATCC 29212]; experiment: Bacterial MIC assay (Hancock modified broth assay); type: cell-based; details: ATCC29212, cation-adjusted Mueller–Hinton, 18 h
Procedure: as §3

[13] = test system: Pseudomonas aeruginosa [ATCC 10145]; experiment: Bacterial MIC assay (Hancock modified broth assay); type: cell-based; details: ATCC10145, cation-adjusted Mueller–Hinton, 18 h
Procedure: as §3

N=C(N)NCCCCC(=O)Nc1cc(C(F)(F)F)cc(NC(=O)c2cc(C(=O)Nc3cc(C(F)(F)F)cc(NC(=O)CCCCNC(=N)N)c3O[C@@H]3CCNC3)ncn2)c1O[C@@H]1CCNC1 [Brilacidin]
efficacy in rabbit model of MRSA-induced keratitis [1]: displays efficacy

Cc1cc(C#CCNC(=N)N)ccc1-c1nnc(-c2ccc(C#CCNC(=N)N)cc2)o1 [Compound 1]
EC50 (MRGPRX2): 0.8 µM
MIC [2]: 6.25 µg/mL (≈ 14.7 µM)
MIC [3]: 12.5 to 50 µg/mL (≈ 29.3 to 117 µM)
MIC A. fumigatus [3]: 12.5 to 50 µg/mL
cytotoxic effects on 3T3 cells at concentrations relevant for antifungal activity [4]: little to no cytotoxic effects
CC50 at 1 h [5]: 209 µM
MIC [6]: 0.78 to 1.56 µg/mL (≈ 1.83 to 3.66 µM)
cytotoxic effects on HepG2 cells at concentrations relevant for antifungal activity [7]: little to no cytotoxic effects
CC50 at 1 h [8]: 257 µM

N=C(N)N1CC=C(c2ccc(-c3nnc(-c4ccc(C5=CCN(C(=N)N)CC5)cc4)o3)cc2)CC1 [Compound 2]
MIC [9]: 3.1 µg/mL (≈ 6.62 µM)
Bacterial MIC Escherichia coli [9]: 3.1 µg/mL
MIC [10]: 0.1 µg/mL (≈ 0.213 µM)
Bacterial MIC Staphylococcus aureus [10]: 0.1 µg/mL
MIC [11]: > 100 µg/mL
MIC [12]: > 100 µg/mL
MIC [13]: > 100 µg/mL
EC50 (MRGPRX2): 3 µM
MIC [2]: 0.39 µg/mL (≈ 0.832 µM)
MIC A. flavus [2]: 0.39 µg/mL (≈ 0.832 µM)
MIC [3]: 0.39 µg/mL (≈ 0.832 µM)
MIC A. fumigatus [3]: 0.39 µg/mL (≈ 0.832 µM)
cytotoxic effects on 3T3 cells at concentrations relevant for antifungal activity [4]: little to no cytotoxic effects
CC50 at 1 h [5]: 124 µM
MIC [6]: 0.39 µg/mL (≈ 0.832 µM)
MIC C. albicans [6]: 0.39 µg/mL (≈ 0.832 µM)
cytotoxic effects on HepG2 cells at concentrations relevant for antifungal activity [7]: little to no cytotoxic effects
CC50 at 1 h [8]: 151 µM

C1=C(c2ccc(-c3cn(-c4ccc(C5=CCNCC5)cc4)nn3)cc2)CCNC1 [Compound 3]
EC50 (MRGPRX2): 1.8 µM
MIC [2]: > 100 µg/mL
MIC A. flavus [2]: > 100 µg/mL
MIC [3]: > 100 µg/mL
MIC A. fumigatus [3]: > 100 µg/mL
CC50 at 1 h [5]: 60 µM
MIC [6]: > 100 µg/mL
MIC C. albicans [6]: > 100 µg/mL
CC50 at 1 h [8]: 111 µM

Cc1c(-c2ccc(N3CCNCC3)cc2)ncnc1-c1ccc(N2CCNCC2)cc1 [Compound 4]
MIC [9]: > 100 µg/mL
MIC [10]: > 100 µg/mL
MIC [11]: > 100 µg/mL
MIC [12]: > 100 µg/mL
MIC [13]: > 100 µg/mL
percentage degranulation (β-hexosaminidase release) (MRGPRX2): 20–25%
EC50 (MRGPRX2): 0.4 µM
MIC [2]: > 100 µg/mL
MIC [3]: > 100 µg/mL
fold less cytotoxic than Compound 2 [4]: 2–10 fold
CC50 at 1 h [5]: 883 µM
MIC [6]: > 100 µg/mL
CC50 at 1 h [8]: > 1560 µM

c1cc(-c2ccc(N3CCNCC3)cc2)cc(-c2ccc(N3CCNCC3)cc2)n1 [Compound 5]
MIC [9]: > 100 µg/mL
MIC [10]: > 100 µg/mL
MIC [11]: > 100 µg/mL
MIC [12]: > 100 µg/mL
MIC [13]: > 100 µg/mL
percentage degranulation (β-hexosaminidase release) (MRGPRX2): 20–25%
EC50 (MRGPRX2): 0.38 µM
MIC [2]: > 100 µg/mL
MIC [3]: > 100 µg/mL
fold less cytotoxic than Compound 2 [4]: 2–10 fold
CC50 at 1 h [5]: 200 µM
MIC [6]: > 100 µg/mL
CC50 at 1 h [8]: 447 µM

From article PMC6523814, “Small-Molecule Host-Defense Peptide Mimetic Antibacterial and Antifungal Agents Activate Human and Mouse Mast Cells via Mas-Related GPCRs” (Cells, 2019)
